Results published in PubChem BioAssay (NCI).
Where “and” joins values, the source holds several entries; their conditions need not be identical. Identical values can stand only once.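 Following 48 hours of exposure in 96-well plates, responses at five concentrations were used to interpolate endpoints linearly. GI50: concentration for 50% inhibition of growth. TGI denotes the concentration required for complete inhibition of growth.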

Test system: MDA-MB-468 breast
Test: NCI-60 cell line screen, 48 h

| SMILES | GI50 | TGI |
| --- | --- | --- |
| COc1ccc(C2CC(c3cc(Cl)c(C)cc3O)=NN2c2ccc(S(N)(=O)=O)cc2)cc1OC (centres undefined) | 2580 nM | 9510 nM |
| COc1cc(-c2n[nH]nc2-c2ccc3c(c2)OCCO3)cc(OC)c1OC | 14.7 nM | 30500 nM |
| O=C(CCl)Nc1ccc2c(c1)C(=O)c1ccccc1C2=O | 1760 nM | 4080 nM |
| CC(C)(C)c1ccc(C(=O)Nc2sc3c(c2C#N)CCC(=O)C3)cc1 | 1330 nM | 5280 nM |
| COCC(=O)Oc1cc(-c2ccc(C)cc2C)c(OC(=O)COC)c(-c2ccc(C)cc2C)c1 | 2790 nM | 14600 nM |
| O=C(CNc1nc(-c2cccc([N+](=O)[O-])c2)cs1)Nc1cccc([N+](=O)[O-])c1 | 1950 nM | 4920 nM |
| NC(N)=Nc1ccc(Oc2cccc(NC(N)=Nc3ccc(Cl)c(C(F)(F)F)c3)c2)cn1 | 1380 nM | 3130 nM |
| COc1ccc(/C=C(\C#N)c2ccc(OC)cc2)cc1 | 1610 nM | 35000 nM |
| CCCC(c1nnnn1C1CCCCC1)N1CCN(C(=O)c2ccco2)CC1 (centres undefined) | > 100000 nM | > 100000 nM |
| c1ccc(-c2c(-c3ccccc3)[n+](Cc3ccc4ccccc4c3)c(-c3cccc4ccccc34)n2Cc2ccc3ccccc3c2)cc1 | 47.3 nM | 281 nM |
| O=C1/C(=C/c2ccc(Cl)cc2)COc2ccc(O)cc21 | 2060 nM | 4550 nM |
| O=C1Nc2ccccc2/C1=C/C(=N/c1nnc(-c2ccccc2)s1)c1ccccc1 | 2710 nM | 8100 nM |
| Cc1cc(C)c(-c2cc(O)c(-c3c(C)cc(C)cc3C)cc2O)c(C)c1 | 1960 nM | 8470 nM |
| COc1ccc(Nc2nccc(Nc3ccc4[nH]ncc4c3)n2)cc1 | 1700 nM | 4550 nM |
| Cn1cc(-c2nc3c(F)cc4[nH]ncc4c3c3c2CCCC3)c(C(F)(F)F)n1 | 6440 nM | 33100 nM |
| CCCCCCCCc1cc[n+](CC(=O)c2ccc(Br)cc2)cc1 | 1230 nM | 2690 nM |

| SMILES | GI50 | TGI |
| --- | --- | --- |
| C=C1C(=O)O[C@H]2[C@H]1CC/C(COC(=O)CCCCCCC(=O)OC/C1=C/CC[C@@]3(C)O[C@H]3[C@H]3OC(=O)C(=C)[C@@H]3CC1)=C\CC[C@@]1(C)O[C@@H]21 | 2160 nM | 5440 nM |
| CCN(Cc1ccncc1)c1ccc(CO)c(Cl)c1 | 35.4 nM | 161 nM |
| FC(F)(F)c1ccc(-c2cnc(Cl)nc2NC2CCCCCC2)cc1 | 55800 nM | > 100000 nM |
| CCCCNCC(O)c1cc2c(Cl)cc(Cl)cc2c2cc(C(F)(F)F)ccc12 (centres undefined) | 1590 nM | 3030 nM |
| COc1cc(C(=O)/C=C/c2ccc(OCCCCCC[P+](c3ccccc3)(c3ccccc3)c3ccccc3)cc2)cc(OC)c1OC | 242 nM | 705 nM |
| Cc1ccc(C(=O)Nc2ccc(CNCCN3CCNCC3)c(C(F)(F)F)c2)cc1C#Cc1cnc2cccnn12 | 1650 nM | 3300 nM |
| COc1cc(-c2ccc3ncnc(NCc4ccccc4)c3c2)cnc1OC | 1710 nM | 4960 nM |
| CCCCCCCCc1ccc(OCCOCC[N+](C)(C)CC)cc1 (tested in a mixture with another compound) | 430 nM | 2320 nM |
| COC1=CC(c2ccc[nH]2)=N/C1=C\c1[nH]c(C)c(C(=O)CCCCC(=O)NCc2ccccc2)c1C | 2600 nM | 7850 nM |
| COc1ccc2nc(NNC(=O)c3cnccn3)c3cccn3c2c1 | 287 nM | 1960 nM |
| Cc1cc2c([nH]1)CSc1cc(S(=O)(=O)c3ccccc3)c(=O)[nH]c1-2 | 4530 nM | > 26100 nM |
| C=C(C)C(=O)Oc1ccc(N=Nc2ccc(C)cc2)ccc1=O | 2800 nM | 11500 nM |
| Cc1cc(-c2ncc(-c3cccnc3)cc2/C=C/c2ccccc2)cnc1-c1cccnc1 | > 20500 nM | > 100000 nM |
| O=C(NCCCCNC(=O)OCc1ccc2c(Cl)cc(Cl)c(O)c2n1)OCc1ccc2c(Cl)cc(Cl)c(O)c2n1 | 532 nM | > 100000 nM |
| CC(C)c1cc(C(=O)N2Cc3ccc(CN4CCN(C)CC4)cc3C2)c(O)cc1O | 40.4 nM and 58.8 nM | 3720 nM and 378 nM |
| COc1cc(/C=N/Nc2ncnc3[nH]ncc23)ccc1O | 9900 nM | > 25000 nM |
